Data on 14 compounds can be found in ChEMBL document CHEMBL1157018, “Synthesis and antibacterial activity of 5-ylidenethiazolidin-4-ones and 5-benzylidene-4,6-pyrimidinediones” (2010).

SMILES strings stand for the structures. Converted amounts (≈) assume the structure as drawn. Where only a bound is given, the exact number is not on record here.

What all share (assay type): functional
The subject of assay [1] is Staphylococcus aureus. The assay can be described thus: Antibacterial activity against Staphylococcus aureus ATCC 29213 after 18 to 24 hrs.
Assay [2] concerns Enterococcus faecalis. The assay can be described thus: Antibacterial activity against Enterococcus faecalis ATCC 29212 after 18 to 24 hrs.
Assay [3] concerns Pseudomonas aeruginosa. The assay can be described thus: Antibacterial activity against Pseudomonas aeruginosa ATCC 27853 after 18 to 24 hrs.
The subject of assay [4] is Escherichia coli. As to the kind of experiment: Antibacterial activity against Escherichia coli ATCC 25922 after 18 to 24 hrs.
Assay [5] deals with Staphylococcus aureus. As to the kind of experiment: Antibacterial activity against methicillin-resistant Staphylococcus aureus ATCC 43300 after 18 to 24 hrs.
For assay [6], the system named is Streptococcus pyogenes. As to the kind of experiment: Antibacterial activity against Streptococcus pyogenes ATCC 19615 after 18 to 24 hrs.
In assay [7] the test system is Streptococcus pneumoniae. As to the kind of experiment: Antibacterial activity against Streptococcus pneumoniae ATCC 49619 after 18 to 24 hrs.

With `Cl.N#Cc1ccc(CN2C(=O)C(CCOc3ccc(CCN)cc3)Oc3ccccc32)cc1` (stereo not drawn), the minimum inhibitory concentration (MIC) in assay [1] and in assay [2] was 64 µg/mL in each case.
Consider `COc1cc(C=C2C(=O)NC(=O)NC2=O)cc(OC)c1OC`, for which the MIC in assay [1], in assay [3], in assay [4] and in assay [2] was more than 128 µg/mL in each case.
Consider `O=C1NC(=O)C(=Cc2ccc(F)c(F)c2F)C(=O)N1`, for which the MIC in assay [1] is 32 µg/mL (≈ 118 µM); in assay [3], more than 128 µg/mL; in assay [4] it was more than 128 µg/mL; in assay [5], 128 µg/mL (≈ 474 µM); in assay [2], more than 128 µg/mL.
For `O=C1NC(=S)S/C1=C\CC1Oc2ccccc2N(Cc2ccc(Cl)cc2)C1=O` (stereo not drawn), the MIC was 32 µg/mL (≈ 74.3 µM) in assay [1], more than 128 µg/mL in assay [3], more than 128 µg/mL in assay [4] and more than 128 µg/mL in assay [2].
In the case of `N#Cc1ccc(CN2C(=O)C(C/C=C3\SC(=S)NC3=O)Oc3ccccc32)cc1` (stereo not drawn), the minimal inhibitory concentration (MIC) in assay [1] was 32 µg/mL (≈ 75.9 µM); in assay [3], more than 128 µg/mL; in assay [4], more than 128 µg/mL; in assay [2] it was 32 µg/mL (≈ 75.9 µM).
`Cl.NCCc1ccc(OCCC2Oc3ccccc3N(Cc3ccc(Cl)cc3)C2=O)cc1` (stereo not drawn): the minimum inhibitory concentration (MIC) is 8 µg/mL in assay [1] and 16 µg/mL in assay [2].
As to `O=C1NC(=O)/C(=C/c2ccc(F)c(F)c2F)S1`, the minimum inhibitory concentration (MIC) in assay [1] was 32 µg/mL (≈ 123 µM); in assay [3] it was more than 128 µg/mL; in assay [4], more than 128 µg/mL; in assay [5], 64 µg/mL (≈ 247 µM); in assay [2], more than 128 µg/mL.
Regarding `COc1cc(/C=C2\SC(=O)NC2=O)cc(OC)c1OC`, the MIC in assay [1], in assay [3], in assay [4] and in assay [2] was more than 128 µg/mL each time.
For `O=C1NC(=S)S/C1=C\c1ccc(F)c(F)c1F`, the MBC is more than 128 µg/mL in assay [6] and 64 µg/mL (≈ 232 µM) in assay [7]. Moreover, the MIC in assay [1] is 0.5 µg/mL (≈ 1.82 µM); in assay [3] it was more than 128 µg/mL; in assay [4], more than 128 µg/mL; in assay [5], 32 µg/mL (≈ 116 µM); in assay [2] it was more than 128 µg/mL.
Take `O=C1NC(=S)S/C1=C\c1ccc(O)c(O)c1O`: the minimum inhibitory concentration (MIC) in assay [1] and in assay [2] was more than 128 µg/mL in each case.
Regarding `O=C(O)CN1C(=O)/C(=C/c2ccc(F)c(F)c2F)SC1=S`, the MIC in assay [1], in assay [3], in assay [4] and in assay [2] was more than 128 µg/mL each time.
In the case of `COc1cc(/C=C2\SC(=S)N(CC(=O)O)C2=O)cc(OC)c1OC`, the MIC in assay [1], in assay [3], in assay [4] and in assay [2] was more than 128 µg/mL in each case.
In the case of `COc1cc(C=C2C(=O)NC(=S)NC2=O)cc(OC)c1OC`, the minimum inhibitory concentration (MIC) in assay [1], in assay [3], in assay [4] and in assay [2] was more than 128 µg/mL each time.
Consider `COc1cc(/C=C2\SC(=S)NC2=O)cc(OC)c1OC`, for which the minimal bactericidal concentration (MBC) in assay [6] and in assay [7] was more than 128 µg/mL throughout. Further, the MIC in assay [1] was 8 µg/mL (≈ 25.7 µM); in assay [3], more than 128 µg/mL; in assay [4], more than 128 µg/mL; in assay [5] it was 128 µg/mL (≈ 411 µM); in assay [2] it was more than 128 µg/mL.

As usually defined, the MIC is the smallest concentration in the dilution series that meets the test's criterion for growth inhibition. Low values mean a more susceptible organism, high ones a less susceptible organism. For orientation: MBC means the lowest tested concentration that kills the bacteria rather than only halting them. Higher therefore signals less potent killing.
